Test results taken from US12612372B2, “Oxopyridazinyl-phenyl-carbonohydrazonoyl dicyanide compound and use thereof” (KOREA INSTITUTE OF SCIENCE AND TECHNOLOGY, priority 2020, dated 2026).

Experiments:
CYP2D6 = target: T1, CYP2D6 (Homo sapiens, UniProt P10635); assay: CYP coenzyme activity in human liver microsomes, CYP2D6; format: in vitro ADME; conditions: 10 μM compound, human liver microsomes 0.25 mg/mL, substrate dextromethorphan, 15 minutes
T1 construct: human liver microsomes (0.25 mg/mL); from tissue; host or cells: human liver microsomes
Experimental: (§1) Specifically, human liver microsomes (0.25 mg/mL), a 0.1 M phosphate buffer solution (pH 7.4), a substrate drug cocktail of five types of drug metabolism enzymes (50 μM phenacetin, 10 μM diclofenac, 100 μM S-mephenytoin, 5 μM dextromethorphan, and 2.5 μM midazolam), and the compound at a concentration of 0 μM or 10 μM were mixed and pre-cultured at 37° C. for 5 minutes, and then further cultured at 37° C. for 15 minutes together with an NADPH generation system solution added thereto. Thereafter, the reaction was terminated by adding an acetonitrile solution containing an internal standard material (terfenadine) and centrifuged for 5 minutes (14,000 rpm, 4° C.), and then a supernatant was injected into an LC-MS/MS system for simultaneous analysis of metabolites of the substrate drugs to thereby evaluate the inhibitory effects on drug metabolism.
(§2) Metabolites of each CYP coenzyme indicator drug generated through the reaction were analyzed using the Shimadzu Nexera XR system and TSQ Vantage (Thermo). In an HPLC column, Kinetex C18 (2.1 mm×100 mm, 2.6 μm particle size; Phenomenex, USA) was used, and mobile phases were (A) distilled water containing 0.1% formic acid and (B) acetonitrile containing 0.1% formic acid, and a gradient program shown in Table 3 was applied thereto.
(§3) The generated metabolites were quantified using a multiple reaction monitoring (MRM) quantification mode, and Xcalibur (version 1.6.1) was used for data analysis. In order to express the inhibitory effects of the novel compounds prepared according to the examples of the present invention on CYP coenzyme activity, CYP coenzyme activities (%) with respect to the control group not treated with any compound are shown in Table 4 below.

CYP1A2 = target: T2, CYP1A2 (Homo sapiens, UniProt P05177); assay: CYP coenzyme activity in human liver microsomes, CYP1A2; format: in vitro ADME; conditions: 10 μM compound, human liver microsomes 0.25 mg/mL, substrate phenacetin, 15 minutes
T2 construct: human liver microsomes (0.25 mg/mL); from tissue; host or cells: human liver microsomes
T2 sequence (P05177 1-516): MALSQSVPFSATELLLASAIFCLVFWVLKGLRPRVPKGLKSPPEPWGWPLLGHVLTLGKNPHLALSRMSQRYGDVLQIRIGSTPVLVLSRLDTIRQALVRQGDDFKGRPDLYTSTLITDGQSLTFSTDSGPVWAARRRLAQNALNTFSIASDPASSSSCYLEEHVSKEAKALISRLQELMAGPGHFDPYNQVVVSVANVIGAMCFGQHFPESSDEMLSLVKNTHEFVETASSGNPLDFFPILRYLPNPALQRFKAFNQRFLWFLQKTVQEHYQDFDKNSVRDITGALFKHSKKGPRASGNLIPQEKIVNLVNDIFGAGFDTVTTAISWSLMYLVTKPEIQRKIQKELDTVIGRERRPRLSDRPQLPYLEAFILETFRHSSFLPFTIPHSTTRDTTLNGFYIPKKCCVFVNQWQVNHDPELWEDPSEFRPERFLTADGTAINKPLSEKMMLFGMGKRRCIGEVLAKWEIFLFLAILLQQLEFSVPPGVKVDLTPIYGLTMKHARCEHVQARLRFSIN
Experimental: as §1, §2, §3

[1] = Liver microsome stability, mouse; format: in vitro ADME; conditions: mouse liver microsomes 0.25 mg/mL, 1 μM compound, 37° C., 30 minutes, NADPH
Experimental: (§4) The stability of liver microsomes due to the compounds prepared according to Examples 1 to 14 was confirmed. Specifically, four types of liver microsomes (human, dog, rat, and mouse, each 0.25 mg/mL), a 0.1 M phosphate buffer solution (pH 7.4), and each of the compounds at a concentration of 1 μM were mixed and pre-cultured at 37° C. for 5 minutes and further cultured at 37° C. for 30 minutes together with an NADPH generation system solution added thereto. Thereafter, the reaction was terminated by adding an acetonitrile solution containing an internal standard material (chlorpropamide) and centrifuged for 5 minutes (14,000 rpm, 4° C.), and then a supernatant was injected into an LC-MS/MS system for analysis of substrate drugs to thereby evaluate metabolic stability due to 8 types of compounds.
(§5) The amount of the substrate remaining after the reaction was analyzed using the Shimadzu Nexera XR system and TSQ Vantage (Thermo). In an HPLC column, Kinetex XB-C18 (2.1 mm×100 mm, particle size of 2.6 μm; Phenomenex, USA) was used, and mobile phases were (A) distilled water containing 0.1% formic acid and (B) acetonitrile containing 0.1% formic acid. Analyst software (version 1.6.3) and Xcalibur (version 1.6.1) were used for data analysis.

CYP2C9 = target: T3, CYP2C9 (Homo sapiens, UniProt P11712); assay: CYP coenzyme activity in human liver microsomes, CYP2C9; format: in vitro ADME; conditions: 10 μM compound, human liver microsomes 0.25 mg/mL, substrate diclofenac, 15 minutes
T3 construct: human liver microsomes (0.25 mg/mL); from tissue; host or cells: human liver microsomes
Experimental: as §1, §2, §3

Tau-BiFC cells = assay: Cell viability (stained nuclei count) in tau-BiFC cells; conditions: 10 μM compound; stained nuclei relative to Forskolin-only group (100%), 48 hours
Experimental: (§6) In order to select novel tau protein aggregation—inhibiting substances, tau-BiFC cell model, in which formation of tau oligomers in living cells is easily observed, was used. Tau-BiFC cells were aliquoted into a 384-well plate. […] After 48 hours, nuclei in the cells were stained using Hoechst (at a treatment concentration of 2 μg/mL), and BiFC fluorescence intensity was automatically measured using Operetta (PerkinElmer) to count stained nuclei in each well out of the entire well plate. […] Furthermore, the degree of cytotoxicity induced by the newly synthesized compound was also measured based on the 100% cell viability of the group treated only with Forskolin as a reference, and the cytotoxicity value of each compound was calculated using the equation “(number of stained nuclei in group treated with compound/number of stained nuclei in group treated with Forskolin)×100”.
(§7) After 48 hours, tau protein aggregation reaction and degrees of cytotoxicity were analyzed by observing images of the cells. IC50 and toxicity of the compounds were analyzed by nonlinear regression analysis of Prism software (Graph Pad).

CYP3A4 = target: T4, CYP3A4 (Homo sapiens, UniProt P08684); assay: CYP coenzyme activity in human liver microsomes, CYP3A4; format: in vitro ADME; conditions: 10 μM compound, human liver microsomes 0.25 mg/mL, substrate midazolam, 15 minutes
T4 construct: human liver microsomes (0.25 mg/mL); from tissue; host or cells: human liver microsomes
Experimental: as §1, §2, §3

tau protein = target: T5, tau protein (Homo sapiens, UniProt P10636); assay: Tau-BiFC cell model, Forskolin-induced tau protein aggregation; format: cell-based; conditions: for Tau BiFC in cells Response (%, @10 μM): 10 μM compound, BiFC fluorescence relative to Forskolin-only group (100% tau protein-aggregated state), 48 hours
T5 construct: fused on or other part: Split Venus fragments VN173 and VC155, each fused to one copy of tau as BiFC reporter halves
Experimental: as §6, §7

[2] = Liver microsome stability, dog; format: in vitro ADME; conditions: dog liver microsomes 0.25 mg/mL, 1 μM compound, 37° C., 30 minutes, NADPH
Experimental: as §4, §5

[3] = Liver microsome stability, human; format: in vitro ADME; conditions: human liver microsomes 0.25 mg/mL, 1 μM compound, 37° C., 30 minutes, NADPH
Experimental: as §4, §5

CYP2C19 = target: T6, CYP2C19 (Homo sapiens, UniProt P33261); assay: CYP coenzyme activity in human liver microsomes, CYP2C19; format: in vitro ADME; conditions: 10 μM compound, human liver microsomes 0.25 mg/mL, substrate S-mephenytoin, 15 minutes
T6 construct: human liver microsomes (0.25 mg/mL); from tissue; host or cells: human liver microsomes
Experimental: as §1, §2, §3

[4] = Liver microsome stability, rat; format: in vitro ADME; conditions: rat liver microsomes 0.25 mg/mL, 1 μM compound, 37° C., 30 minutes, NADPH
Experimental: as §4, §5

T3 sequence (P11712 whole entry): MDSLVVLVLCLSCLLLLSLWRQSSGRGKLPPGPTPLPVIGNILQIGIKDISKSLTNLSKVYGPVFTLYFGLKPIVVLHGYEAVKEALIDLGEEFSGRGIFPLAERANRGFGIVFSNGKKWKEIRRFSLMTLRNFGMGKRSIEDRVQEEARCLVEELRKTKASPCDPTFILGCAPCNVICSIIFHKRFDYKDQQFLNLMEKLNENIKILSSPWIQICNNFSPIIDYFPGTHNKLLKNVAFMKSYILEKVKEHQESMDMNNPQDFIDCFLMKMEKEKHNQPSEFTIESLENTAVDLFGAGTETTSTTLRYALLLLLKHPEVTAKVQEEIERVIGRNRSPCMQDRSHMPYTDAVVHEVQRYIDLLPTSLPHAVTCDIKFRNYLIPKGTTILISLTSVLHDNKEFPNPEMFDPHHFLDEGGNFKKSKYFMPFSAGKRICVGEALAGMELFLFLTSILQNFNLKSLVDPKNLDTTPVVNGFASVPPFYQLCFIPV
T5 sequence (P10636 2-441 isoform P10636-8 limits assumed): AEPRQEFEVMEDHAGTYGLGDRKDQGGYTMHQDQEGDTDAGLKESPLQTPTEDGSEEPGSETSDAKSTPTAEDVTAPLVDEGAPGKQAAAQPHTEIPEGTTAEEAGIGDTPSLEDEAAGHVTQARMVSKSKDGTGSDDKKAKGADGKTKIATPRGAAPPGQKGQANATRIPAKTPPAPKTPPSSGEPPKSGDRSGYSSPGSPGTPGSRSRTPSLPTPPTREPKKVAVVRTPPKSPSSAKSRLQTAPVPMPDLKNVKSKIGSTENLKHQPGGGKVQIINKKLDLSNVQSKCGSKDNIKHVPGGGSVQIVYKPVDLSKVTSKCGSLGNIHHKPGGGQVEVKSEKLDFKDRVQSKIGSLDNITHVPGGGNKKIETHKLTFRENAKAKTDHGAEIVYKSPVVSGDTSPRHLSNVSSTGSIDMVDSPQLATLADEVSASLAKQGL
T1 sequence (P10635 whole entry): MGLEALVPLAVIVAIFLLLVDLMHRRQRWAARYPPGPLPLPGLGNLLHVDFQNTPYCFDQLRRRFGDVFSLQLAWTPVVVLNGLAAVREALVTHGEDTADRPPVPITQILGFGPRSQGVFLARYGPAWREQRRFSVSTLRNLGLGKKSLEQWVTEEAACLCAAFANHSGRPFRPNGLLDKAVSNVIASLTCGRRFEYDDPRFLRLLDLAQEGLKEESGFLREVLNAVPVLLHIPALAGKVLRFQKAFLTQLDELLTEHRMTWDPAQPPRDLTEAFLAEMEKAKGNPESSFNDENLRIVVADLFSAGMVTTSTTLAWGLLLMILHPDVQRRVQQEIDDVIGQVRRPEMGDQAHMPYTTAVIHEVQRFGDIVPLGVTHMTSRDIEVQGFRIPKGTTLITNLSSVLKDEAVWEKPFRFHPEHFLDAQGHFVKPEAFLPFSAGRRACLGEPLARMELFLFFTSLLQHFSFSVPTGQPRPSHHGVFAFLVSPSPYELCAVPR
T6 sequence (P33261 whole entry): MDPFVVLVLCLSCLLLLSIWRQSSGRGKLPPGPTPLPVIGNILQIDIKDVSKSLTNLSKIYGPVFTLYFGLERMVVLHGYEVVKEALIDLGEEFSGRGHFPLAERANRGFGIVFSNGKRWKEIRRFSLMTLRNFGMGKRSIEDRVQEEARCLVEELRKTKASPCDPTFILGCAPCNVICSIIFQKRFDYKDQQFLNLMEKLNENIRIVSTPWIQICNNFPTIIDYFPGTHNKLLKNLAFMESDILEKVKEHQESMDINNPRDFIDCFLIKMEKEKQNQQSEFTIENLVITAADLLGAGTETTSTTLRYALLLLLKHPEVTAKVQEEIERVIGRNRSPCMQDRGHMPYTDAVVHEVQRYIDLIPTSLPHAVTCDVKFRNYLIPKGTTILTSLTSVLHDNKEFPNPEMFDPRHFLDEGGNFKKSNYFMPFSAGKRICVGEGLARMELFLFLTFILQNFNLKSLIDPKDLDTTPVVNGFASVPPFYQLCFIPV
T4 sequence (P08684 whole entry): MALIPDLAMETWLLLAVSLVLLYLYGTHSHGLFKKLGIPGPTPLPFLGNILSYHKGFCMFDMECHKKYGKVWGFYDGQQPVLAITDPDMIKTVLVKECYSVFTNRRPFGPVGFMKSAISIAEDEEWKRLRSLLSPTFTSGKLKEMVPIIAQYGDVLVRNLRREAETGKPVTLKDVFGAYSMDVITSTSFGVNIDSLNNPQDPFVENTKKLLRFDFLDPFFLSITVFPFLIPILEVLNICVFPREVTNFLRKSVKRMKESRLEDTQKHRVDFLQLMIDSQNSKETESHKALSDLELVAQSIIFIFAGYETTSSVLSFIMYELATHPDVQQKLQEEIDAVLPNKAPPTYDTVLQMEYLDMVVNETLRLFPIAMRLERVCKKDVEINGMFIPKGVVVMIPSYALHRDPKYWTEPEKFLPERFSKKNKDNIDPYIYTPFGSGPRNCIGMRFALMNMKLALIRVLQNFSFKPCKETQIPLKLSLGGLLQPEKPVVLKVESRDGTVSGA

Row | Structure (SMILES) | CYP2D6 activity (%) with respect to control group not treated with any compound (CYP2D6) | CYP1A2 activity (%) with respect to control group not treated with any compound (CYP1A2) | Mouse (%) amount remaining after the reaction [1] | CYP2C9 activity (%) with respect to control group not treated with any compound (CYP2C9) | Cell viability (%, @10 μM) (Tau-BiFC cells) | CYP3A4 activity (%) with respect to control group not treated with any compound (CYP3A4) | IC50 (tau protein) | Tau BiFC in cells Response (%, @10 μM) (tau protein) | Dog (%) amount remaining after the reaction [2] | Human (%) amount remaining after the reaction [3] | CYP2C19 activity (%) with respect to control group not treated with any compound (CYP2C19) | Rat (%) amount remaining after the reaction [4]
1 | CC1CC(=O)N(CC(F)(F)F)N=C1c1ccc(NN=C(C#N)C#N)cc1 (stereo not drawn) [Example 4, (4-(4-methyl-6-oxo-1-(2,2,2-trifluoroethyl)-1,4,5,6-tetrahydropyridazin-3-yl)phenyl)carbonohydrazonoyl dicyanide] | 62.1% | 74.8% | 89% | 55.6% | 98.7% | 74.2% | 450 nM | 0% | 95.6% | 98.2% | 45.5% | 96.8%
2 | COCCN1N=C(c2ccc(NN=C(C#N)C#N)cc2)C(C)CC1=O (stereo not drawn) [Example 5, (4-(1-(2-methoxyethyl)-4-methyl-6-oxo-1,4,5,6-tetrahydropyridazin-3-yl)phenyl)carbonohydrazonoyl dicyanide] | 70.4% | 70% | 94.9% | 71.5% | 95.7% | 74.2% | 90 nM | 15.6% | >100% | 30.9% | 63.4% | 90.9%
3 | CC1CC(=O)N(C2CC2)N=C1c1ccc(NN=C(C#N)C#N)cc1 (stereo not drawn) [Example 6, (4-(1-cyclopropyl-4-methyl-6-oxo-1,4,5,6-tetrahydropyridazin-3-yl)phenyl)carbonohydrazonoyl dicyanide] | 72.6% | 78.6% | 92.7% | 74.2% | 62.9% | 79.5% | 70 nM | 0% | 99.5% | 85% | 74.2% | 95.8%
